Data taken from patent US8389523B2, “Substituted quinoxaline and an agrochemical composition thereof” (Kumiai Chemical Industry Co., Ltd., priority 2007, dated 2013).

How the values were obtained:
Assay type in all cases: in vivo
Set-up in all cases: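 grade 0 to 5 of growth suppression where 5 is 90% or more and 0 below 10%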
[1] = test system: Abutilon theophrasti medicus; assay: Herbicidal effects in upland field foliar treatment (Test Example 3); conditions: criteria of Table 138; for herbicidal effect (index) on Abutilon theophrasti medicus: 1000 g active ingredient per hectare, 14th day after treatment; for herbicidal effects on Abutilon theophrasti medicus: 1000 g of the active ingredient per hectare, 14th day after the treatment, wettable powder
Procedure: (§1) Test Example 3 Test on Herbicidal Effects in Upland Field Foliar Treatment A 80-cm^2 plastic pot was filled with upland field soil. Seeds of Echinochloa crus-galli (L.) P. Beauv. var. crus-galli, Abutilon theophrasti medicus and Amaranthus viridis L. were sowed, and the plants were grown for two weeks in a greenhouse. A wettable powder formulation prepared according to Preparation Example 1 was diluted with water, and was sprayed with a small sprayer to perform foliar application over the entirety of plants from the upper side, in an amount equivalent to 1000 liters per hectare, such that 1000 g of the active ingredient per hectare was applied. Thereafter, the plants were grown in a greenhouse, and on the 14th day after the treatment, the herbicidal effects were investigated according to the criteria described in the Table 138 shown above.

[2] = test system: Echinochloa crus-galli (L.) P. Beauv. var. crus-galli; assay: as above; conditions: criteria of Table 138; for herbicidal effect (index) on Echinochloa crus-galli (L.) P. Beauv. var. crus-galli: 1000 g active ingredient per hectare, 14th day after treatment; for herbicidal effects on Echinochloa crus-galli (L.) P. Beauv. var. crus-galli: 1000 g of the active ingredient per hectare, 14th day after the treatment, wettable powder
Procedure: as §1

Amaranthus viridis L. [3] = assay: as above; conditions: criteria of Table 138; for herbicidal effect (index) on Amaranthus viridis L.: 1000 g active ingredient per hectare, 14th day after treatment; for herbicidal effects on Amaranthus viridis L.: 1000 g of the active ingredient per hectare, 14th day after the treatment, wettable powder
Procedure: as §1

[4] = test system: Abutilon theophrasti medicus; assay: Herbicidal effects in upland field soil treatment (Test Example 2); conditions: 1000 g active ingredient per hectare, 21st day after treatment, criteria of Table 138
Outline: (§2)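 A wettable powder formulation, diluted with water, is applied to the soil surface after sowing and covering seeds in upland field soil, at a rate of 1000 g active ingredient per hectare. After greenhouse growth, herbicidal activity is graded by criteria at 21 days.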

Amaranthus viridis L. [5] = assay: as above; conditions: 1000 g active ingredient per hectare, 21st day after treatment, criteria of Table 138
Outline: as §2

[6] = test system: Monochoria vaginalis (Burm. f.) Presl var. plantaginea (Roxb.) Solms-Laub.; assay: Herbicidal effects in paddy field soil treatment (Test Example 1); conditions: paddy field soil treatment; 1000 g of the active ingredient per hectare; wettable powder added dropwise on water surface; 21st day after treatment
Outline: (§3)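 Application rate was 1000 g active ingredient per hectare, delivered as a diluted wettable powder onto the surface of 3 cm flood water, the day after seeds were sown in paddy soil. Effects were rated 21 days later.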

[7] = test system: Scirpus juncoides Roxb. var. ohwianus. T. Koyama; assay: as above; conditions: paddy field soil treatment; 1000 g of the active ingredient per hectare; wettable powder added dropwise on water surface; 21st day after treatment
Outline: as §3

[8] = test system: Echinochloa oryzicola Vasing; assay: as above; conditions: paddy field soil treatment; 1000 g of the active ingredient per hectare; wettable powder added dropwise on water surface; 21st day after treatment
Outline: as §3

Cn1c(=O)c(C(=O)C2=C(O)C3CCC(C3)C2=O)nc2ccccc21 (stereo not shown) [I-5]
5: herbicidal effect (index) on Abutilon theophrasti medicus [1] | herbicidal effect (index) on Amaranthus viridis L. (Amaranthus viridis L. [3]) | herbicidal effect (index) on Abutilon theophrasti medicus [4] | herbicidal effect (index) on Amaranthus viridis L. (Amaranthus viridis L. [5])
4: herbicidal effect (index) on Echinochloa crus-galli (L.) P. Beauv. var. crus-galli [2]

O=C1CCCC(O)=C1C(=O)c1nc2ccccc2n(C2CCCC2)c1=O [I-21]
5: herbicidal effect (index) on Abutilon theophrasti medicus [1] | herbicidal effect (index) on Echinochloa crus-galli (L.) P. Beauv. var. crus-galli [2] | herbicidal effect (index) on Amaranthus viridis L. (Amaranthus viridis L. [3]) | herbicidal effect (index) on Abutilon theophrasti medicus [4] | herbicidal effect (index) on Amaranthus viridis L. (Amaranthus viridis L. [5])

CSCn1c(=O)c(C(=O)C2=C(O)C3CCC(C3)C2=O)nc2ccccc21 (stereo not shown) [I-71]
5: herbicidal effect (index) on Abutilon theophrasti medicus [1] | herbicidal effect (index) on Echinochloa crus-galli (L.) P. Beauv. var. crus-galli [2] | herbicidal effect (index) on Amaranthus viridis L. (Amaranthus viridis L. [3]) | herbicidal effect (index) on Abutilon theophrasti medicus [4] | herbicidal effect (index) on Amaranthus viridis L. (Amaranthus viridis L. [5])

CCCCCCn1c(=O)c(C(=O)C2=C(O)CCCC2=O)nc2ccccc21 [Compound I-22]
4: herbicidal effect (index) on Echinochloa crus-galli (L.) P. Beauv. var. crus-galli [2]
5: Herbicidal effects index, Monochoria vaginalis (Burm. f.) Presl var. plantaginea (Roxb.) Solms-Laub. [6] | Herbicidal effects index, Scirpus juncoides Roxb. var. ohwianus. T. Koyama [7] | Herbicidal effects index, Echinochloa oryzicola Vasing [8] | herbicidal effect (index) on Abutilon theophrasti medicus [1] | herbicidal effect (index) on Amaranthus viridis L. (Amaranthus viridis L. [3])

O=C1CCCC(O)=C1C(=O)c1nc2ccccc2n(-c2ncccn2)c1=O [I-195]
5: herbicidal effect (index) on Abutilon theophrasti medicus [1] | herbicidal effect (index) on Echinochloa crus-galli (L.) P. Beauv. var. crus-galli [2] | herbicidal effect (index) on Amaranthus viridis L. (Amaranthus viridis L. [3]) | herbicidal effect (index) on Abutilon theophrasti medicus [4] | herbicidal effect (index) on Amaranthus viridis L. (Amaranthus viridis L. [5])

O=C1CCCC(O)=C1C(=O)c1nc2ccccc2n(-c2ccc(O)cc2)c1=O [II-51]
5: Herbicidal effects index, Monochoria vaginalis (Burm. f.) Presl var. plantaginea (Roxb.) Solms-Laub. [6] | Herbicidal effects index, Scirpus juncoides Roxb. var. ohwianus. T. Koyama [7] | Herbicidal effects index, Echinochloa oryzicola Vasing [8] | herbicidal effects on Abutilon theophrasti medicus [1] | herbicidal effects on Amaranthus viridis L. (Amaranthus viridis L. [3])
4: herbicidal effects on Echinochloa crus-galli (L.) P. Beauv. var. crus-galli [2]

O=C1CCCC(O)=C1C(=O)c1nc2ccccc2n(-c2ccc(OCC3CCCO3)cc2)c1=O (stereo not shown) [II-116]
4: herbicidal effects on Abutilon theophrasti medicus [1] | herbicidal effects on Echinochloa crus-galli (L.) P. Beauv. var. crus-galli [2]
5: Herbicidal effects index, Monochoria vaginalis (Burm. f.) Presl var. plantaginea (Roxb.) Solms-Laub. [6] | Herbicidal effects index, Scirpus juncoides Roxb. var. ohwianus. T. Koyama [7] | Herbicidal effects index, Echinochloa oryzicola Vasing [8] | herbicidal effects on Amaranthus viridis L. (Amaranthus viridis L. [3])

C#CCOc1ccc(-n2c(=O)c(C(=O)C3=C(O)CCCC3=O)nc3ccccc32)cc1 [II-84]
4: herbicidal effects on Abutilon theophrasti medicus [1] | herbicidal effects on Echinochloa crus-galli (L.) P. Beauv. var. crus-galli [2]
5: Herbicidal effects index, Monochoria vaginalis (Burm. f.) Presl var. plantaginea (Roxb.) Solms-Laub. [6] | Herbicidal effects index, Scirpus juncoides Roxb. var. ohwianus. T. Koyama [7] | Herbicidal effects index, Echinochloa oryzicola Vasing [8] | herbicidal effects on Amaranthus viridis L. (Amaranthus viridis L. [3])

O=C1CCCC(O)=C1C(=O)c1nc2ccccc2n(Cc2cccc(Cl)c2)c1=O [I-112]
5: Herbicidal effects index, Monochoria vaginalis (Burm. f.) Presl var. plantaginea (Roxb.) Solms-Laub. [6] | Herbicidal effects index, Scirpus juncoides Roxb. var. ohwianus. T. Koyama [7] | Herbicidal effects index, Echinochloa oryzicola Vasing [8] | herbicidal effect (index) on Abutilon theophrasti medicus [1] | herbicidal effect (index) on Amaranthus viridis L. (Amaranthus viridis L. [3])
4: herbicidal effect (index) on Echinochloa crus-galli (L.) P. Beauv. var. crus-galli [2]

O=C1CCCC(O)=C1C(=O)c1nc2ccccc2n(Cc2ccccc2Cl)c1=O [I-111]
5: Herbicidal effects index, Monochoria vaginalis (Burm. f.) Presl var. plantaginea (Roxb.) Solms-Laub. [6] | Herbicidal effects index, Scirpus juncoides Roxb. var. ohwianus. T. Koyama [7] | Herbicidal effects index, Echinochloa oryzicola Vasing [8] | herbicidal effect (index) on Abutilon theophrasti medicus [1] | herbicidal effect (index) on Echinochloa crus-galli (L.) P. Beauv. var. crus-galli [2] | herbicidal effect (index) on Amaranthus viridis L. (Amaranthus viridis L. [3])

O=C1CCCC(O)=C1C(=O)c1nc2cccnc2n(CCc2ccccc2)c1=O [III-235]
5: Herbicidal effects index, Monochoria vaginalis (Burm. f.) Presl var. plantaginea (Roxb.) Solms-Laub. [6] | Herbicidal effects index, Scirpus juncoides Roxb. var. ohwianus. T. Koyama [7] | Herbicidal effects index, Echinochloa oryzicola Vasing [8] | herbicidal effects on Abutilon theophrasti medicus [1] | herbicidal effects on Echinochloa crus-galli (L.) P. Beauv. var. crus-galli [2] | herbicidal effects on Amaranthus viridis L. (Amaranthus viridis L. [3])

COc1cc(-n2c(=O)c(C(=O)C3=C(O)CCCC3=O)nc3c(F)cccc32)cc(OC)c1OC [II-234]
5: herbicidal effects on Abutilon theophrasti medicus [1] | herbicidal effects on Amaranthus viridis L. (Amaranthus viridis L. [3]) | herbicidal effect (index) on Abutilon theophrasti medicus [4] | herbicidal effect (index) on Amaranthus viridis L. (Amaranthus viridis L. [5])
4: herbicidal effects on Echinochloa crus-galli (L.) P. Beauv. var. crus-galli [2]

CS(=O)(=O)c1cccc(-n2c(=O)c(C(=O)C3=C(O)CCCC3=O)nc3ccccc32)c1 [II-124]
4: Herbicidal effects index, Echinochloa oryzicola Vasing [8] | herbicidal effects on Abutilon theophrasti medicus [1]
5: Herbicidal effects index, Monochoria vaginalis (Burm. f.) Presl var. plantaginea (Roxb.) Solms-Laub. [6] | Herbicidal effects index, Scirpus juncoides Roxb. var. ohwianus. T. Koyama [7] | herbicidal effects on Echinochloa crus-galli (L.) P. Beauv. var. crus-galli [2] | herbicidal effects on Amaranthus viridis L. (Amaranthus viridis L. [3])

COc1cccc2nc(C(=O)C3=C(O)CCCC3=O)c(=O)n(-c3ccccc3)c12 [II-256]
5: Herbicidal effects index, Monochoria vaginalis (Burm. f.) Presl var. plantaginea (Roxb.) Solms-Laub. [6] | Herbicidal effects index, Scirpus juncoides Roxb. var. ohwianus. T. Koyama [7] | Herbicidal effects index, Echinochloa oryzicola Vasing [8] | herbicidal effects on Echinochloa crus-galli (L.) P. Beauv. var. crus-galli [2] | herbicidal effects on Amaranthus viridis L. (Amaranthus viridis L. [3])
4: herbicidal effects on Abutilon theophrasti medicus [1]

O=C1CCCC(O)=C1C(=O)c1nc2ccccc2n(C2CCS(=O)(=O)C2)c1=O (stereo not shown) [I-137]
4: herbicidal effect (index) on Echinochloa crus-galli (L.) P. Beauv. var. crus-galli [2]
5: Herbicidal effects index, Monochoria vaginalis (Burm. f.) Presl var. plantaginea (Roxb.) Solms-Laub. [6] | Herbicidal effects index, Scirpus juncoides Roxb. var. ohwianus. T. Koyama [7] | Herbicidal effects index, Echinochloa oryzicola Vasing [8] | herbicidal effect (index) on Abutilon theophrasti medicus [1] | herbicidal effect (index) on Amaranthus viridis L. (Amaranthus viridis L. [3])

COc1ccc2nc(C(=O)C3=C(O)CCCC3=O)c(=O)n(-c3cc(F)c(OC)c(F)c3)c2c1 [II-255]
4: herbicidal effects on Abutilon theophrasti medicus [1]
5: Herbicidal effects index, Monochoria vaginalis (Burm. f.) Presl var. plantaginea (Roxb.) Solms-Laub. [6] | Herbicidal effects index, Scirpus juncoides Roxb. var. ohwianus. T. Koyama [7] | Herbicidal effects index, Echinochloa oryzicola Vasing [8] | herbicidal effects on Echinochloa crus-galli (L.) P. Beauv. var. crus-galli [2] | herbicidal effects on Amaranthus viridis L. (Amaranthus viridis L. [3])

COc1ccc(-n2c(=O)c(C(=O)C3=C(O)CCCC3=O)nc3ccccc32)cc1F [II-178]
4: Herbicidal effects index, Echinochloa oryzicola Vasing [8]
5: Herbicidal effects index, Monochoria vaginalis (Burm. f.) Presl var. plantaginea (Roxb.) Solms-Laub. [6] | Herbicidal effects index, Scirpus juncoides Roxb. var. ohwianus. T. Koyama [7] | herbicidal effects on Abutilon theophrasti medicus [1] | herbicidal effects on Echinochloa crus-galli (L.) P. Beauv. var. crus-galli [2] | herbicidal effects on Amaranthus viridis L. (Amaranthus viridis L. [3])

Cc1cc(-n2c(=O)c(C(=O)C3=C(O)CCCC3=O)nc3ccccc32)ccc1F [II-214]
5: Herbicidal effects index, Monochoria vaginalis (Burm. f.) Presl var. plantaginea (Roxb.) Solms-Laub. [6] | Herbicidal effects index, Scirpus juncoides Roxb. var. ohwianus. T. Koyama [7] | Herbicidal effects index, Echinochloa oryzicola Vasing [8] | herbicidal effects on Abutilon theophrasti medicus [1] | herbicidal effects on Echinochloa crus-galli (L.) P. Beauv. var. crus-galli [2] | herbicidal effects on Amaranthus viridis L. (Amaranthus viridis L. [3])

CSCCn1c(=O)c(C(=O)C2=C(O)CCCC2=O)nc2ccccc21 [Compound I-91]
5: Herbicidal effects index, Monochoria vaginalis (Burm. f.) Presl var. plantaginea (Roxb.) Solms-Laub. [6] | Herbicidal effects index, Scirpus juncoides Roxb. var. ohwianus. T. Koyama [7] | Herbicidal effects index, Echinochloa oryzicola Vasing [8] | herbicidal effect (index) on Abutilon theophrasti medicus [1] | herbicidal effect (index) on Echinochloa crus-galli (L.) P. Beauv. var. crus-galli [2] | herbicidal effect (index) on Amaranthus viridis L. (Amaranthus viridis L. [3])
